According to ChEMBL document CHEMBL1201862, “PubChem BioAssay data set” (2004):
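Dose response: 5 concentrations. Exposure: 48 h. Format: 96-well plates. Endpoint: linear interpolation; highest concentration if not reached. GI50 marks 50% less growth.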 The source made the active and inactive calls. Rule as the data show it: active = GI50 up to about 1.1 µM and inactive = higher.

Legend:
Assay in all cases: NCI anticancer screen, dose series, 48 h
[1] = test system: HL-60
[2] = test system: NCI-H460
[3] = test system: HT-29
[4] = test system: MDA-N
[5] = test system: UO-31
[6] = test system: A498
[7] = test system: KM12
[8] = test system: HCC 2998
[9] = test system: HCT-15
[10] = test system: CAKI-1
[11] = test system: Malme-3M
[12] = test system: UACC-62
[13] = test system: 786-0
[14] = test system: Hs-578T
[15] = test system: A549
[16] = test system: OVCAR-8
[17] = test system: NCI-H226
[18] = test system: SF-295
[19] = test system: ACHN
[20] = test system: MCF7
[21] = test system: RPMI-8226
[22] = test system: HOP-62
[23] = test system: MOLT-4
[24] = test system: DU-145
[25] = test system: NCI-H522
[26] = test system: OVCAR-3
[27] = test system: MDA-MB-231
[28] = test system: SN12C
[29] = test system: T47D
[30] = test system: SW-620
[31] = test system: SNB-19
[32] = test system: SK-MEL-28
[33] = test system: RXF 393
[34] = test system: TK-10
[35] = test system: K562
[36] = test system: IGROV-1
[37] = test system: UACC-257
[38] = test system: SK-MEL-5
[39] = test system: HCT-116
[40] = test system: BT-549
[41] = test system: SNB-75
[42] = test system: SK-MEL-2
[43] = test system: PC-3
[44] = test system: LOX IMVI
[45] = test system: U-251
[46] = test system: EKVX
[47] = test system: CCRF-CEM
[48] = test system: SR
[49] = test system: SF-539
[50] = test system: SF-268
[51] = test system: NCI-H23
[52] = test system: MDA-MB-435
[53] = test system: HOP-92
[54] = test system: COLO 205
[55] = test system: OVCAR-4
[56] = test system: NCI/ADR-RES
[57] = test system: M14
[58] = test system: SK-OV-3
[59] = test system: OVCAR-5

Cc1ccc(C(=O)O)c(/C=C2\Cc3cc(C)cc(C)c3C2=O)c1
GI50 [1]: 38.6 µM (inactive) | GI50 [2]: 49.2 µM (inactive) | GI50 [3]: > 100 µM (inactive) | GI50 [4]: 56.5 µM (inactive) | GI50 [5]: 92.3 µM (inactive) | GI50 [6]: 81.1 µM (inactive) | GI50 [7]: 65.2 µM (inactive) | GI50 [8]: 70.1 µM (inactive) | GI50 [9]: 53.1 µM | GI50 [10]: > 100 µM (inactive) | GI50 [11]: 96.4 µM (inactive) | GI50 [12]: 76 µM (inactive) | GI50 [13]: > 100 µM (inactive) | GI50 [14]: 93.8 µM (inactive) | GI50 [15]: 78.2 µM (inactive) | GI50 [16]: 82.2 µM (inactive) | GI50 [17]: 40.5 µM (inactive) | GI50 [18]: > 100 µM (inactive) | GI50 [19]: 74 µM (inactive) | GI50 [20]: 69.3 µM (inactive) | GI50 [21]: 73.6 µM (inactive) | GI50 [22]: > 100 µM (inactive) | GI50 [23]: 53.2 µM (inactive) | GI50 [24]: > 100 µM (inactive) | GI50 [25]: > 100 µM (inactive) | GI50 [26]: 36 µM (inactive) | GI50 [27]: 41.3 µM (inactive) | GI50 [28]: 49.4 µM (inactive) | GI50 [29]: 46.6 µM (inactive) | GI50 [30]: > 100 µM (inactive) | GI50 [31]: > 100 µM (inactive) | GI50 [32]: > 100 µM (inactive) | GI50 [33]: 67.3 µM (inactive) | GI50 [34]: > 100 µM (inactive) | GI50 [35]: 52.4 µM (inactive) | GI50 [36]: > 100 µM (inactive) | GI50 [37]: 90.6 µM (inactive) | GI50 [38]: 35.7 µM (inactive) | GI50 [39]: 53.7 µM (inactive) | GI50 [40]: > 100 µM (inactive) | GI50 [41]: 63.5 µM (inactive) | GI50 [42]: > 100 µM (inactive) | GI50 [43]: 48.6 µM (inactive) | GI50 [44]: 72.3 µM (inactive) | GI50 [45]: 78.5 µM (inactive) | GI50 [46]: 66.7 µM (inactive) | GI50 [47]: 35.7 µM (inactive) | GI50 [48]: 46 µM (inactive) | GI50 [49]: 75.9 µM (inactive) | GI50 [50]: > 100 µM (inactive)

O=[N+]([O-])c1ccc(-c2nc3cc([N+](=O)[O-])ccc3[nH]2)cc1
GI50 [2]: 22 µM (inactive) | GI50 [3]: 28.4 µM (inactive) | GI50 [4]: 33.2 µM (inactive) | GI50 [5]: 7.66 µM (inactive) | GI50 [7]: 24.8 µM (inactive) | GI50 [8]: 50.2 µM (inactive) | GI50 [9]: 34.9 µM | GI50 [10]: 32.7 µM (inactive) | GI50 [11]: 31.3 µM (inactive) | GI50 [12]: 37 µM (inactive) | GI50 [13]: 32.1 µM (inactive) | GI50 [51]: 21.4 µM (inactive) | GI50 [14]: 40.5 µM (inactive) | GI50 [52]: 29.4 µM (inactive) | GI50 [15]: 15.1 µM (inactive) | GI50 [16]: 22.4 µM (inactive) | GI50 [53]: 19.6 µM (inactive) | GI50 [17]: 39.6 µM (inactive) | GI50 [18]: 20 µM (inactive) | GI50 [19]: 31 µM (inactive) | GI50 [20]: 31 µM (inactive) | GI50 [21]: 13.7 µM (inactive) | GI50 [22]: 31.9 µM (inactive) | GI50 [23]: 29.9 µM (inactive) | GI50 [24]: 27.9 µM (inactive) | GI50 [25]: 11.4 µM (inactive) | GI50 [26]: 42.1 µM (inactive) | GI50 [28]: 23.9 µM (inactive) | GI50 [29]: 15.5 µM (inactive) | GI50 [30]: 41.3 µM (inactive) | GI50 [54]: 14.3 µM (inactive) | GI50 [55]: 47.2 µM (inactive) | GI50 [31]: 43.1 µM (inactive) | GI50 [32]: 40.6 µM (inactive) | GI50 [33]: 63.7 µM (inactive) | GI50 [34]: 52.2 µM (inactive) | GI50 [36]: 30.5 µM (inactive) | GI50 [37]: 31 µM (inactive) | GI50 [38]: 16.8 µM (inactive) | GI50 [39]: 19 µM (inactive) | GI50 [40]: 31.2 µM (inactive) | GI50 [41]: 39.4 µM (inactive) | GI50 [42]: 23.6 µM (inactive) | GI50 [43]: 16.4 µM (inactive) | GI50 [44]: 26.5 µM (inactive) | GI50 [45]: 25.4 µM (inactive) | GI50 [56]: 17.6 µM (inactive) | GI50 [57]: 21.9 µM (inactive) | GI50 [58]: 34.1 µM (inactive) | GI50 [46]: 39.3 µM (inactive) | GI50 [48]: 29 µM (inactive) | GI50 [49]: 23.5 µM (inactive) | GI50 [50]: 44.9 µM (inactive)

NC(=S)N/N=C1\CCCC1C(O)(C(F)(F)Cl)C(F)(F)Cl (centres undefined)
GI50 [2]: > 10 µM (inactive) | GI50 [3]: > 10 µM (inactive) | GI50 [6]: > 10 µM (inactive) | GI50 [7]: > 10 µM (inactive) | GI50 [8]: > 10 µM (inactive) | GI50 [9]: > 10 µM | GI50 [10]: > 10 µM (inactive) | GI50 [11]: > 10 µM (inactive) | GI50 [59]: > 10 µM (inactive) | GI50 [12]: 8.63 µM (inactive) | GI50 [13]: > 10 µM (inactive) | GI50 [51]: > 10 µM (inactive) | GI50 [14]: > 10 µM (inactive) | GI50 [52]: > 10 µM (inactive) | GI50 [15]: > 10 µM (inactive) | GI50 [16]: > 10 µM (inactive) | GI50 [53]: > 10 µM (inactive) | GI50 [17]: > 10 µM (inactive) | GI50 [18]: > 10 µM (inactive) | GI50 [19]: > 10 µM (inactive) | GI50 [20]: > 10 µM (inactive) | GI50 [21]: > 10 µM (inactive) | GI50 [22]: > 10 µM (inactive) | GI50 [23]: > 10 µM (inactive) | GI50 [24]: > 10 µM (inactive) | GI50 [25]: > 10 µM (inactive) | GI50 [26]: > 10 µM (inactive) | GI50 [27]: > 10 µM (inactive) | GI50 [28]: > 10 µM (inactive) | GI50 [29]: > 10 µM (inactive) | GI50 [30]: > 10 µM (inactive) | GI50 [54]: > 10 µM (inactive) | GI50 [55]: > 10 µM (inactive) | GI50 [31]: > 10 µM (inactive) | GI50 [32]: > 10 µM (inactive) | GI50 [33]: > 10 µM (inactive) | GI50 [34]: > 10 µM (inactive) | GI50 [35]: > 10 µM (inactive) | GI50 [36]: > 10 µM (inactive) | GI50 [37]: > 10 µM (inactive) | GI50 [38]: 2.01 µM (inactive) | GI50 [39]: > 10 µM (inactive) | GI50 [40]: > 10 µM (inactive) | GI50 [41]: > 10 µM (inactive) | GI50 [42]: > 10 µM (inactive) | GI50 [43]: > 10 µM (inactive) | GI50 [44]: > 10 µM (inactive) | GI50 [45]: > 10 µM (inactive) | GI50 [56]: > 10 µM (inactive) | GI50 [57]: > 10 µM (inactive) | GI50 [58]: > 10 µM (inactive) | GI50 [46]: > 10 µM (inactive) | GI50 [47]: > 10 µM (inactive) | GI50 [48]: > 10 µM (inactive) | GI50 [49]: > 10 µM (inactive) | GI50 [50]: > 10 µM (inactive)
